Assay results from the NIST ThermoML archive (doi:10.1016/j.tca.2006.01.020).

Test: molar heat capacity at constant pressure
Conditions: 101.33 kPa, Crystal, Small (less than 1 g) adiabatic calorimetry

[Ba+2].[Ce+4].[O-2].[O-2].[O-2] [barium cerium(IV) oxide]
Conditions	molar heat capacity at constant pressure [J/K/mol]
1.721 K	0.00113
1.726 K	0.00106
1.733 K	0.00113
1.761 K	0.00102
1.781 K	0.00108
1.833 K	0.00116
1.87 K	0.00103
1.904 K	0.00103
1.995 K	0.00167
2.042 K	0.00152
2.096 K	0.00138
2.134 K	0.00153
2.178 K	0.0019
2.817 K	0.00505
2.844 K	0.00578
2.877 K	0.0056
3.154 K	0.00691
3.175 K	0.00697
3.25 K	0.00798
3.258 K	0.00871
3.318 K	0.00829
3.349 K	0.00913
3.382 K	0.00944
3.471 K	0.0093
3.57 K	0.01
3.673 K	0.0107
3.834 K	0.0118
3.983 K	0.0132
4.14 K	0.0143
4.241 K	0.0157
4.384 K	0.0171
4.454 K	0.0187
4.608 K	0.0193
4.68 K	0.0211
4.756 K	0.0223
4.835 K	0.0232
4.911 K	0.0245
4.992 K	0.026
5.071 K	0.0274
5.152 K	0.0284
5.227 K	0.0294
5.296 K	0.0316
5.375 K	0.0321
5.441 K	0.0353
5.536 K	0.0361
5.614 K	0.0388
5.697 K	0.0405
5.78 K	0.0425
5.861 K	0.0448
5.946 K	0.0466
6.034 K	0.0491
6.119 K	0.0516
6.209 K	0.0536
6.297 K	0.0571
6.366 K	0.057
6.457 K	0.0616
6.548 K	0.0639
6.647 K	0.0675
6.739 K	0.0705
6.841 K	0.0743
6.93 K	0.0778
7.04 K	0.0831
7.13 K	0.0857
7.24 K	0.0907
7.34 K	0.0935
7.45 K	0.0993
7.55 K	0.103
7.66 K	0.11
7.76 K	0.115
7.89 K	0.123
8 K	0.129
8.13 K	0.138
8.25 K	0.145
8.38 K	0.156
8.5 K	0.164
8.64 K	0.176
8.77 K	0.185
8.91 K	0.201
9.04 K	0.209
9.17 K	0.221
9.32 K	0.241
9.46 K	0.251
9.59 K	0.266
9.75 K	0.289
9.92 K	0.309
10 K	0.318
10.08 K	0.328
10.23 K	0.348
10.4 K	0.377
10.58 K	0.4
10.76 K	0.433
10.94 K	0.461
11.1 K	0.489
11.3 K	0.534
11.48 K	0.561
11.68 K	0.61
11.89 K	0.651
12.09 K	0.7
12.29 K	0.744
12.5 K	0.806
12.72 K	0.859
12.93 K	0.919
13.15 K	0.983
13.37 K	1.05
13.59 K	1.12
13.82 K	1.2
14.05 K	1.28
14.28 K	1.36
14.51 K	1.45
14.74 K	1.54
14.97 K	1.63
15.21 K	1.73
15.44 K	1.83
15.68 K	1.93
15.91 K	2.05
16.15 K	2.16
16.38 K	2.26
16.6 K	2.38
16.84 K	2.51
17.09 K	2.62
17.32 K	2.75
17.55 K	2.89
17.79 K	3.02
18.03 K	3.16
18.27 K	3.3
18.52 K	3.44
18.76 K	3.58
19 K	3.73
19.23 K	3.89
19.47 K	4.05
19.73 K	4.19
19.98 K	4.35
20 K	4.411
20.2 K	4.52
20.44 K	4.68
20.69 K	4.84
20.94 K	5
21.17 K	5.2
21.41 K	5.36
21.66 K	5.54
21.91 K	5.7
22.16 K	5.88
22.39 K	6.07
22.63 K	6.26
22.88 K	6.44
23.14 K	6.62
23.38 K	6.81
23.62 K	7
23.86 K	7.2
24.1 K	7.39
24.36 K	7.58
24.61 K	7.76
24.86 K	7.96
25.1 K	8.19
25.34 K	8.4
25.6 K	8.57
25.86 K	8.77
26.1 K	8.98
26.34 K	9.19
26.57 K	9.41
26.83 K	9.6
27.09 K	9.8
27.35 K	9.96
27.6 K	10.2
27.83 K	10.4
28.07 K	10.7
28.33 K	10.8
28.59 K	10.7
28.92 K	11.3
29.29 K	11.6
29.83 K	12.1
30 K	12.33
30.39 K	12.6
30.99 K	13.1
31.6 K	13.6
32.23 K	14.1
32.89 K	14.7
33.56 K	15.3
34.26 K	15.9
34.97 K	16.5
35.7 K	17.1
36.44 K	17.8
37.19 K	18.4
37.95 K	19.1
38.72 K	19.8
39.5 K	20.4
40 K	21.08
40.3 K	21.1
41.1 K	21.8
41.92 K	22.5
42.76 K	23.2
43.61 K	24
44.48 K	24.7
45.36 K	25.5
46.27 K	26.2
47.24 K	26.9
48.19 K	27.7
49.16 K	28.5
50 K	29.66
50.15 K	29.4
51.15 K	30.2
52.16 K	31
53.16 K	31.8
54.16 K	32.6
55.16 K	33.5
56.16 K	34.3
57.16 K	35.1
58.15 K	35.9
59.14 K	36.7
60 K	37.42
60.13 K	37.4
61.12 K	38.2
62.11 K	39
63.1 K	39.7
64.09 K	40.5
65.08 K	41.3
66.07 K	42
67.07 K	42.8
68.06 K	43.6
69.05 K	44.3
70 K	44.66
70.05 K	45
71.04 K	45.8
72.03 K	46.6
73.03 K	47.3
74.02 K	47.8
75.02 K	48.6
76.02 K	49.2
77.02 K	49.9
78.02 K	50.6
79.01 K	50.7
80 K	51.2
80.01 K	51.5
80.29 K	51
81.69 K	51.5
82.49 K	52
83.31 K	52.5
84.14 K	53.1
84.98 K	53.7
85.82 K	54.2
86.68 K	54.7
87.55 K	55.3
88.43 K	55.8
89.31 K	56.3
90 K	57.18
90.21 K	56.9
91.11 K	57.4
92.02 K	58
92.94 K	58.5
93.87 K	59.1
94.81 K	59.7
95.75 K	60.2
96.71 K	60.8
97.68 K	61.3
98.65 K	61.9
99.64 K	62.4
100 K	62.7
100.64 K	63
101.64 K	63.6
102.66 K	64.1
103.69 K	64.7
104.72 K	65.2
105.77 K	65.8
106.83 K	66.4
107.9 K	66.9
108.97 K	67.4
110.06 K	67.7
111.16 K	68.5
112.27 K	69.1
113.4 K	69.7
114.53 K	70.2
115.68 K	70.8
116.83 K	71.4
118 K	71.9
119.18 K	72.4
120 K	72.61
120.37 K	73
121.58 K	73.5
122.79 K	74
124.02 K	74.6
125.26 K	75.1
126.51 K	75.7
127.77 K	76.2
129.05 K	76.8
130.34 K	77.3
131.64 K	77.9
132.96 K	78.4
134.29 K	78.9
135.63 K	79.4
136.99 K	79.9
138.36 K	80.4
139.74 K	80.9
140 K	81.2
141.54 K	81.6
142.95 K	82.2
144.38 K	82.8
145.83 K	83.2
147.28 K	83.8
148.76 K	84.5
150.25 K	85
151.75 K	85.6
153.27 K	86.1
154.8 K	86.6
156.34 K	87.3
157.91 K	87.8
159.49 K	88.2
160 K	88.53
161.08 K	88.9
162.69 K	89.3
164.32 K	89.9
165.96 K	90.3
167.62 K	90.8
169.3 K	91.2
170.99 K	91.8
172.7 K	92.4
174.43 K	92.9
176.17 K	93.5
177.93 K	94
179.71 K	94.3
180 K	94.63
181.5 K	95.2
183.31 K	95.3
185.15 K	95.9
187 K	96.4
188.86 K	97.1
190.75 K	97.8
192.65 K	98
194.58 K	98.2
196.52 K	98.2
198.48 K	98.6
200 K	99.59
200.46 K	99.2
202.45 K	99.5
204.43 K	100
206.42 K	101
208.4 K	101.1
210.39 K	101.6
212.37 K	101.7
214.35 K	102.5
216.33 K	102.8
218.31 K	103.5
220 K	103.6
220.3 K	103.8
222.28 K	103.6
224.26 K	104.2
226.23 K	105.1
228.22 K	105
230.2 K	105.5
232.17 K	106.2
234.15 K	106.2
236.14 K	106.1
238.1 K	106.8
240 K	106.9
240.08 K	106.6
242.05 K	107.3
244.02 K	107.1
245.99 K	107.7
249.95 K	108.3
251.89 K	108.9
253.89 K	109.5
255.86 K	109.5
257.84 K	109.2
259.8 K	110.2
260 K	109.9
261.77 K	109.7
263.74 K	110.1
267.67 K	111
269.63 K	110.4
271.61 K	110.6
273.57 K	111.4
275.53 K	111.7
277.5 K	111.9
279.46 K	112.8
280 K	112.6
281.42 K	112.8
283.39 K	112
285.35 K	114
287.3 K	114.2
289.27 K	113.1
291.22 K	113.8
293.17 K	114.3
294.05 K	113.5
297.48 K	114.1
298.15 K	114.8
299.16 K	114.5
300 K	114.9
